Active and inactive are the calls of the source. No cut-off for these calls is given here.
Experiments:
[1] = Toxicity in BALB/c mouse infected with methicillin-resistant Staphylococcus aureus ATCC 43300 assessed as damage in kidney at 50 to 200 mg/kg, sc administered every 24 hrs for 4 days by H&E staining based light microscopic analysis; format: organism-based; details: in vivo, dose 50-200 mg/kg
Staphylococcus aureus [2] = assay: Synergistic antimicrobial activity against Staphylococcus aureus ATCC 43300 assessed as FICI at 1 times MIC after 24 hrs in presence of 32 ug/ml piperacillin by checkerboard assay; format: functional
Staphylococcus aureus [3] = assay: Synergistic antimicrobial activity against Staphylococcus aureus ATCC 43300 assessed as FICI at 1 times MIC after 24 hrs in presence of 8 ug/ml gentamicin by checkerboard assay; format: functional
Staphylococcus aureus [4] = assay: Antibacterial activity against Staphylococcus aureus ATCC 25923 assessed as reduction in microbial growth after 16 to 18 hrs by microbroth dilution method; format: functional; details: time 16-18 hrs
Staphylococcus aureus [5] = assay: Synergistic antimicrobial activity against Staphylococcus aureus ATCC 43300 assessed as FICI at 1 times MIC after 24 hrs in presence of 128 ug/ml kanamycin by checkerboard assay; format: functional
Staphylococcus aureus [6] = assay: Antibacterial activity against methicillin resistant Staphylococcus aureus ATCC48073 assessed as reduction in microbial growth after 16 to 18 hrs by microbroth dilution method; format: functional; details: time 16-18 hrs
Pseudomonas aeruginosa = assay: Antibacterial activity against Pseudomonas aeruginosa ATCC27853 assessed as reduction in microbial growth after 16 to 18 hrs by microbroth dilution method; format: functional; details: time 16-18 hrs
Staphylococcus aureus [7] = assay: Antibacterial activity against methicillin resistant Staphylococcus aureus ATCC 43300 persisters assessed as reduction in colony formation at 8 ug/ml incubated for 2 hrs by colony counting method; format: functional, organism-based; details: dose 8.0 µg/ml
Staphylococcus aureus [8] = assay: Antibacterial activity against methicillin resistant Staphylococcus aureus ATCC 43300 assessed as reduction in microbial growth after 16 to 18 hrs by microbroth dilution method; format: functional; details: time 16-18 hrs
[9] = Toxicity in BALB/c mouse infected with methicillin-resistant Staphylococcus aureus ATCC 43300 assessed as damage in lung at 50 to 200 mg/kg, sc administered every 24 hrs for 4 days by H&E staining based light microscopic analysis; format: organism-based; details: in vivo, dose 50-200 mg/kg
Staphylococcus aureus [10] = assay: Antibacterial activity against methicillin resistant Staphylococcus aureus ATCC 43300 persisters assessed as reduction in colony formation at 8 ug/ml incubated for 8 hrs by colony counting method; format: functional, organism-based; details: dose 8.0 µg/ml
Staphylococcus aureus [11] = assay: Synergistic antimicrobial activity against Staphylococcus aureus ATCC 43300 assessed as FICI at 0.25 times MIC after 24 hrs in presence of 128 ug/ml piperacillin by checkerboard assay; format: functional
Staphylococcus aureus [12] = assay: Synergistic antimicrobial activity against Staphylococcus aureus ATCC 43300 assessed as FICI at 2 times MIC after 24 hrs in presence of 4 ug/ml gentamicin by checkerboard assay; format: functional
[13] = Toxicity in BALB/c mouse infected with methicillin-resistant Staphylococcus aureus ATCC 43300 assessed as damage in spleen at 50 to 200 mg/kg, sc administered every 24 hrs for 4 days by H&E staining based light microscopic analysis; format: organism-based; details: in vivo, dose 50-200 mg/kg
Staphylococcus aureus [14] = assay: Synergistic antimicrobial activity against Staphylococcus aureus ATCC 43300 assessed as FICI at 2 times MIC after 24 hrs in presence of 64 ug/ml kanamycin by checkerboard assay; format: functional
Escherichia coli = assay: Antibacterial activity against Escherichia coli ATCC25922 assessed as reduction in microbial growth after 16 to 18 hrs by microbroth dilution method; format: functional; details: ATCC 25922, time 16-18 hrs
Staphylococcus aureus [15] = assay: Synergistic antimicrobial activity against Staphylococcus aureus ATCC 43300 assessed as FICI at 0.5 times MIC after 24 hrs in presence of 128 ug/ml kanamycin by checkerboard assay; format: functional
Cell membrane [16] = assay: Induction of cell membrane depolarization in methicillin resistant Staphylococcus aureus ATCC 43300 measured after 60 mins by DiOC5 dye based flow analyzer
Staphylococcus aureus [17] = assay: Antibacterial activity against methicillin resistant Staphylococcus aureus ATCC49800 assessed as reduction in microbial growth after 16 to 18 hrs by microbroth dilution method; format: functional; details: time 16-18 hrs
Enterococcus faecalis = assay: Antibacterial activity against Enterococcus faecalis ATCC29212 assessed as reduction in microbial growth after 16 to 18 hrs by microbroth dilution method; format: functional; details: ATCC 29212, time 16-18 hrs
Staphylococcus aureus [18] = assay: Antibacterial activity against methicillin resistant Staphylococcus aureus ATCC515992 assessed as reduction in microbial growth after 16 to 18 hrs by microbroth dilution method; format: functional; details: time 16-18 hrs
Cell membrane [19] = assay: Induction of cell membrane damage in methicillin resistant Staphylococcus aureus ATCC 43300 assessed as increase in ATP leakage […] at 4 times MIC measured every 30 mins for 6 hrs by Bactiter-glo assay
Cell membrane [20] = assay: Induction of cell membrane permeabilization in methicillin resistant Staphylococcus aureus ATCC 43300 assessed as fluorescence intensity at 2 times MIC measured after 30 mins by propidium iodide staining based fluorescence assay
Staphylococcus aureus [21] = assay: Synergistic antimicrobial activity against Staphylococcus aureus ATCC 43300 assessed as FICI at 0.5 times MIC after 24 hrs in presence of 16 ug/ml gentamicin by checkerboard assay; format: functional
Staphylococcus aureus [22] = assay: Antimicrobial activity against methicillin-resistant Staphylococcus aureus ATCC 43300 infected in abscesses mouse model assessed as increase in mouse survival at 50 to 200 mg/kg, sc administered every 24 hrs for 4 days; format: functional, organism-based; details: dose 50-200 mg/kg
Cell membrane [23] = assay: Induction of cell membrane depolarization in methicillin resistant Staphylococcus aureus ATCC 43300 measured up to 60 mins by DiOC5 dye based flow analyzer; details: time min <=60, TDE = time-dependent effect
Cell membrane [24] = assay: Induction of cell membrane damage in methicillin resistant Staphylococcus aureus ATCC 43300 assessed as increase in nucleic acid leakage by measuring increase in absorbance at 260 nm at 0.5 to 2 times MIC measured every 30 mins for 6 hrs by spectrophotometry; format: subcellular
L02 = assay: Cytotoxicity against human L02 cells assessed as cell viability at 10 ug/ml measured after 24 hrs by MTT assay; format: cell-based; details: l02, 24 h, dose 10 µg/ml
Staphylococcus aureus [25] = assay: Antibacterial activity against methicillin resistant Staphylococcus aureus ATCC 43300 persisters assessed as reduction in number of bacteria at 4 times MIC incubated for 4 hrs by colony counting method; format: functional, organism-based
Staphylococcus aureus [26] = assay: Antibacterial activity against methicillin resistant Staphylococcus aureus ATCC49008 assessed as reduction in microbial growth after 16 to 18 hrs by microbroth dilution method; format: functional; details: time 16-18 hrs
[27] = Toxicity in BALB/c mouse infected with methicillin-resistant Staphylococcus aureus ATCC 43300 assessed as damage in liver at 50 to 200 mg/kg, sc administered every 24 hrs for 4 days by H&E staining based light microscopic analysis; format: organism-based; details: in vivo, dose 50-200 mg/kg
Staphylococcus aureus [28] = assay: Inhibition of biofilm formation in methicillin-resistant Staphylococcus aureus ATCC 43300 at 4 times MIC incubated for 24 hrs by crystal violet staining based microplate reader assay; format: functional
Staphylococcus aureus [29] = assay: Inhibition of biofilm formation in methicillin-resistant Staphylococcus aureus ATCC 43300 at 1 times MIC incubated for 24 hrs by crystal violet staining based microplate reader assay; format: functional

CC(C)=CCc1c(OCCF)cc(/C=C/c2ccc(F)cc2)c(C(=O)O)c1O
Activity [1]: Non-Toxic | fractional inhibitory concentration index (FICI) (Staphylococcus aureus [2]): 0.315 | fractional inhibitory concentration index (FICI) (Staphylococcus aureus [3]): 0.75 | MIC (Staphylococcus aureus [4]): 2 µg/mL | fractional inhibitory concentration index (FICI) (Staphylococcus aureus [5]): 0.75 | MIC (Staphylococcus aureus [6]): 4 µg/mL | MIC (Pseudomonas aeruginosa): > 32 µg/mL | Activity (Staphylococcus aureus [7]): Active | MIC (Staphylococcus aureus [8]): 4 µg/mL | Activity [9]: Non-Toxic | Activity (Staphylococcus aureus [10]): Active | fractional inhibitory concentration index (FICI) (Staphylococcus aureus [11]): 0.3125 | fractional inhibitory concentration index (FICI) (Staphylococcus aureus [12]): 0.75 | Activity [13]: Non-Toxic | fractional inhibitory concentration index (FICI) (Staphylococcus aureus [14]): 1 | MIC (Escherichia coli): > 32 µg/mL | fractional inhibitory concentration index (FICI) (Staphylococcus aureus [15]): 1.125 | Activity (Cell membrane [16]): Dose-Dependent Effect | MIC (Staphylococcus aureus [17]): 4 µg/mL | MIC (Enterococcus faecalis): > 32 µg/mL | MIC (Staphylococcus aureus [18]): 4 µg/mL | Activity (Cell membrane [19]): Active | Activity (Cell membrane [20]): Active | fractional inhibitory concentration index (FICI) (Staphylococcus aureus [21]): 1.125 | Activity (Staphylococcus aureus [22]): Active | Activity (Cell membrane [23]): Tde | Activity (Cell membrane [24]): Active | Activity (L02): Toxic | Activity (Staphylococcus aureus [25]): Active | MIC (Staphylococcus aureus [26]): 4 µg/mL | Activity [27]: Non-Toxic | inhibition (INH) (Staphylococcus aureus [28]): 90% | inhibition (INH) (Staphylococcus aureus [29]): 50%

Reference: ChEMBL document CHEMBL4828717, “Synthetic cajaninstilbene acid derivatives eradicate methicillin-resistant Staphylococcus aureus persisters and biofilms” (Eur J Med Chem, 2021)
